The values that follow come from ChEMBL document CHEMBL1208731, “A novel, broad-spectrum anticancer compound containing the imidazo[4,5-e][1,3]diazepine ring system” (Bioorg Med Chem Lett, 2010).

Holding throughout (format): functional, cell-based
Assay [1] relates to PC-3. The experiment in a line: Cytotoxicity against human PC3 cells after 72 hrs. To be noted: PC-3, 72 h.
The subject of assay [2] is MCF7. Put plainly: Cytotoxicity against human MCF7 cells after 72 hrs. To be noted: MCF7, 72 h.
The subject of assay [3] is A549. Put plainly: Cytotoxicity against human A549 cells after 72 hrs. To be noted: A549, 72 h.
Assay [4] concerns NCI-H460. Put plainly: Cytotoxicity against human H460 cells after 72 hrs. To be noted: NCI-H460, 72 h.
The test system of assay [5] is OVCAR-3. Put plainly: Cytotoxicity against human OVCAR-3 cells after 72 hrs.

Calls of active or inactive are those of the source. The rule behind the calls is not given here.

As usually defined, the IC50 is the concentration needed to halve the response being measured. Read a low IC50 as greater potency. For the molecule `CCNc1nc(N)c2ncnc-2c(N)n1`, the IC50 is greater than 800 µM in assay [1], greater than 800 µM in assay [2], 38 µM in assay [3] and 22 µM in assay [4]. In assay [5], the result was Active.
